According to patent EP0212822A1, “A composition containing a plant growth regulator and an alkanol and a method of using the same” (ICI AMERICAS INC., priority 1985, dated 1987):

Columns and labels:
[1] = test system: Malus communis (Apple); assay: Trunk injection, percent of growth based upon a control; type: in vivo; settings: 35 days after treatment
Protocol: (§1) The examples which follow exemplify the improvements obtained by this invention. However, these examples are not intended to limit the scope of the invention. In Examples 1-41, the subject trees were injected at a distance approximately one foot from the soil line by drilling 7/32 inch diameter holes to a 2 inch depth at a 30-45° angle tangential to the trunk with a pressure injector (150 psi) purchased from the Asplundh Tree Expert Co., Company No. 346-3502. The results are expressed in terms of Retardation and Uniformity Ratings. The Retardation rating scale is as follows: • 0 = no retardataion • 1 = 1-20% retardation • 2 = 21-40% retardation • 3 = 41-60% retardation • 4 = 61-80% retardation • 5 = 81-100% retardation
(2RS, 3RS)-1-(4-chlorophenyl-4,4-dimethyl-2,-1,2,4-triazol-1-yl)pentan-3-ol (PGR) was dissolved in 1 liter of solvent at room temperature and the resulting solution was stirred until clear, approximately 20 to 30 minutes. Two equal aliquots of the resulting solution were injected into two injection holes of the trunk of Malus communis (Apple) having a trunk diameter at the point of injection approximately 4 to 5 inches. The injection holes were approximately 12 inches above the soil surface. The percent of growth, based upon a control, was measured 35 days after treatment.

[2] = test system: Water Oak; assay: Trunk injection, holes at 4 inch intervals, Retardation and Uniformity Ratings; type: in vivo, Quercus nigra (Water Oak); set-up: key to Uniformity Rating (U): 0 = no effect from PGR; 1 = poor; 2 = fair; 3 = acceptable; 4 = very good; 5 = excellent; settings: 38 ml/hole
Protocol: as §1
The Uniformity Rating is a measure of the consistency of response to the treatment between different branches of the tree. The Uniformity scale employed is as follows: • 0 = no effect from PGR • 1 = poor • 2 = fair • 3 = acceptable • 4 = very good • 5 = excellent
10 (0.034 moles), 20 (0.068 moles) and 40 grams (0.136 moles) of (2RS, 3RS)-1-(4-chlorophenyl)-4,4-dimethyl-2-l,2,4-triazol-l-yl)pentan-3-ol (PGR) were dissolved in 1,1 and 1 liter, respectively, of methanol at room temperature and was stirred until the solution was clear, approximately 20 to 60 minutes. In these examples, the injection holes were placed at approximate 4 inch intervals.

[3] = Solubility in methanol water mixtures (HPLC and UV absorption); type: physicochemical
Protocol: An excess of compound of formula (II) was shaken with methanol water mixtures for a minimum of 4 hours. Samples were passed through a micropore filter to remove undissolved solid, and then centrifuged to remove any emulsified material. The resulting saturated solutions were analyzed by both HPLC and UV absorption against known standard solutions. […] In water alone, solubility is only 35 mg 1^-1 (ppm). Thus, formulations of formula (II) in methanol are low in viscosity when injected, and the PGR will rapidly precipitate within the trunk as the methanol becomes diluted with transpiration water.

[4] = Absorption kinetics: binding of 14C-labelled compound to sawdust; type: physicochemical, Betula pendula-Roth (Birch); settings: for µg in solution: 2 gm sawdust, 20 ml water, 10 mg/l 14C (II)
Protocol: This example illustrates the binding (absorption) properties of the PGR of this invention to wood of the-conducting tissue of Betula pendula-Roth (Birch). The compounds of this invention preferably show partial and reversible binding which enhances the slow release effect by initial precipitation in the trunk. Sawdust samples were obtained from the outer wood of freshly cut, debarked logs. 2 gm samples of sawdust were shaken with 20 ml water containing ^14C triazole-labelled (II) at a concentration of 10 mg 1^-1. At intervals, the aqueous phase was subsampled, and the concentration of (II) determined by scintillation counting. A decrease in concentration reflects binding to the wood, expressed as kd (ratio of chemical bound to wood:chemical in solution).

[5] = week 24, 10 g PGR in 1 liter methanol
[6] = week 56, 10 g PGR in 1 liter methanol

CC(C)(C)[C@@H](O)[C@@H](Cc1ccc(Cl)cc1)n1cncn1 (racemic) [Formula (II), (2RS,3RS)-1-(4-chlorophenyl-4,4-dimethyl-2-1,2,4-triazol-1-yl)pentan-3-ol]
Growth, % of Control ([1]; 2 g PGR in 1 liter Water, total inj. vol. not given): 84 % of Control
Growth, % of Control ([1]; 2.5 g PGR in 1 liter Ethanol, total inj. vol. 200 ml): 58 % of Control
Growth, % of Control ([1]; 5 g PGR in 1 liter Ethanol, total inj. vol. 100 ml): 59 % of Control
Growth, % of Control ([1]; 5 g PGR in 1 liter Ethanol, total inj. vol. 200 ml): 58 % of Control
Growth, % of Control ([1]; 10 g PGR in 1 liter Ethanol, total inj. vol. 50 ml): 70 % of Control
Growth, % of Control ([1]; 10 g PGR in 1 liter Ethanol, total inj. vol. 100 ml): 76 % of Control
Growth, % of Control ([1]; 10 g PGR in 1 liter Ethanol, total inj. vol. 200 ml): 56 % of Control
Growth, % of Control ([1]; 10 g PGR in 1 liter Methanol, total inj. vol. 200 ml): 59 % of Control
Growth, % of Control ([1]; 10 g PGR in 1 liter Water, total inj. vol. 50 ml): 100 % of Control
Growth, % of Control ([1]; 10 g PGR in 1 liter Water, total inj. vol. 100 ml): 103 % of Control
Growth, % of Control ([1]; 20 g PGR in 1 liter Ethanol, total inj. vol. 25 ml): 79 % of Control
Growth, % of Control ([1]; 20 g PGR in 1 liter Ethanol, total inj. vol. 50 ml): 82 % of Control
Growth, % of Control ([1]; 20 g PGR in 1 liter Ethanol, total inj. vol. 100 ml): 60 % of Control
Growth, % of Control ([1]; 20 g PGR in 1 liter Methanol, total inj. vol. 100 ml): 60 % of Control
Growth, % of Control ([1]; 40 g PGR in 1 liter Ethanol, total inj. vol. 25 ml): 77 % of Control
Growth, % of Control ([1]; 40 g PGR in 1 liter Ethanol, total inj. vol. 50 ml): 72 % of Control
Growth, % of Control ([1]; 40 g PGR in 1 liter Methanol, total inj. vol. 50 ml): 76 % of Control
Growth, % of Control ([1]; 40 g PGR in 1 liter Methanol, total inj. vol. 100 ml): 52 % of Control
Growth, % of Control ([1]; 50 g PGR in 1 liter Ethanol, total inj. vol. 10 ml): 90 % of Control
Growth, % of Control ([1]; 80 g PGR in 1 liter Methanol, total inj. vol. 25 ml): 68 % of Control
Retardation Rating (R) [2, 5]: 5 (5 = 81-100% retardation)
Uniformity Rating (U) [2, 5]: 5
Retardation Rating (R) [2, 6]: 5 (5 = 81-100% retardation)
Uniformity Rating (U) [2, 6]: 5
solubility at 4 h ([3]; in water alone): 35 µg/mL
solubility at 4 h ([3]; organic solvent or mixture, 10 % Methanol in water): 53 µg/mL
solubility at 4 h ([3]; organic solvent or mixture, 20 % Methanol in water): 89 µg/mL
solubility at 4 h ([3]; organic solvent or mixture, 50 % Methanol in water): 1200 µg/mL
solubility at 4 h ([3]; organic solvent or mixture, 100 % Methanol): 56000 µg/mL
solubility at 4 h ([3]; water (0% methanol), organic solvent or mixture, 0 % Methanol): 35 µg/mL
µg in solution ([4]; 0 hours): 200 µg
kd (ratio of chemical bound to wood:chemical in solution) ([4]; 0.5 hours): 0.7
µg in solution ([4]; 0.5 hours): 116 µg
kd (ratio of chemical bound to wood:chemical in solution) ([4]; 1 hour): 1.4
µg in solution ([4]; 1 hour): 84 µg
kd (ratio of chemical bound to wood:chemical in solution) ([4]; 2 hours): 1.5
µg in solution ([4]; 2 hours): 81 µg
kd (ratio of chemical bound to wood:chemical in solution) ([4]; 4 hours): 1.7
µg in solution ([4]; 4 hours): 75 µg
kd (ratio of chemical bound to wood:chemical in solution) ([4]; 8 hours): 1.8
µg in solution ([4]; 8 hours): 72 µg
kd (ratio of chemical bound to wood:chemical in solution) ([4]; 24 hours): 1.7
µg in solution ([4]; 24 hours): 74 µg
kd (ratio of chemical bound to wood:chemical in solution) ([4]; 48 hours): 1.8
µg in solution ([4]; 48 hours): 76 µg
